One may read the IC50 as the midpoint of a concentration-inhibition curve. Read a high IC50 as a need for much substance. What is called solubility is how much of the substance goes into solution per volume.

Converted amounts (≈) assume the structure as drawn. Like-named read-outs stand apart in the source and are kept apart here.

The test system of data set [1] is rats. Nature of the data set: Penile erection test using rats. Conditions: oral single dose 10 mg/kg in 0.5% methyl cellulose, observed for 2 hours. The class given is in vivo, rat.
Data set [2] concerns the target T1, Phosphodiesterase-5 enzyme (PDE 5) (Homo sapiens, UniProt O76074).
T1 construct: separated by HPLC (Mono Q anion exchange column) with concentration gradient of 0-500 mM NaCl to elute PDE isozymes; from tissue; host or cells: human corpus cavernosal tissue
Put plainly: Test for phosphodiesterase-5 (PDE 5) activity. The format is biochemical. Conditions: PDE 5 fraction from human corpus cavernosal tissues.

In data set [3] the target is T2, Phosphodiesterase-3 enzyme (PDE 3) (Oryctolagus cuniculus, UniProt G1ST54).
T2 construct: The supernatant was separated by DEAE-cellulose column chromatography (Whatman DE52 bead); from tissue; host or cells: rabbit platelets
T2 sequence (G1ST54 1-1128): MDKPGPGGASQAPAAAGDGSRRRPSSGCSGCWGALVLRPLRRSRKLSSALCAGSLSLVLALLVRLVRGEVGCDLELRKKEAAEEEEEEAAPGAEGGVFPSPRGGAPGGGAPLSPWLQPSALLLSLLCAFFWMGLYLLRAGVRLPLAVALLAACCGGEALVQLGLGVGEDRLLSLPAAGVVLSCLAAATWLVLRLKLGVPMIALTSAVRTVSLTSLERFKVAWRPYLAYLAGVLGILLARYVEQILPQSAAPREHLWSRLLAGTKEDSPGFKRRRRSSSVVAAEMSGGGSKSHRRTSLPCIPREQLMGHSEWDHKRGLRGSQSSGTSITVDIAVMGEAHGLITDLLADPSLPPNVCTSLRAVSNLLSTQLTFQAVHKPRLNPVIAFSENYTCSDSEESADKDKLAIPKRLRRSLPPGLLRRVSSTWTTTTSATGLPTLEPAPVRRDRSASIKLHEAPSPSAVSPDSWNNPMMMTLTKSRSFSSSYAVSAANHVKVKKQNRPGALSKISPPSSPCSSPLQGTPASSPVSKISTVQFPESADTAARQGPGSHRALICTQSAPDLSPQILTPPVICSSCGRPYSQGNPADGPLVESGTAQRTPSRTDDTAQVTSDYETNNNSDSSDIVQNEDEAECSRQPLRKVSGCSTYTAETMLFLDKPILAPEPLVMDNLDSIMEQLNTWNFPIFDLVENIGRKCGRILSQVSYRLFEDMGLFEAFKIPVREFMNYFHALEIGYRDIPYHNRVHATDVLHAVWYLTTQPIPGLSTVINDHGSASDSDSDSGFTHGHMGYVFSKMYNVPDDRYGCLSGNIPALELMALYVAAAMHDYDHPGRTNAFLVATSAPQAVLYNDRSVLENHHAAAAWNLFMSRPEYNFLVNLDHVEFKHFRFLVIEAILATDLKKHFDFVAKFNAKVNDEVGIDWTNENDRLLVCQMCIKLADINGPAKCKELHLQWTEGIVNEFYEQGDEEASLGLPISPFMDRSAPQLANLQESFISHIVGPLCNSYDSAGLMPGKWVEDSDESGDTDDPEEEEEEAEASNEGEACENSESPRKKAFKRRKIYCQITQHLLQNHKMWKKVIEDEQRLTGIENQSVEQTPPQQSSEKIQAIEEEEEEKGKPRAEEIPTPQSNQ
Put plainly: Test for phosphodiesterase-3 (PDE 3) activity. The class given is biochemical. As to conditions: PDE 3 fraction from platelets of a rabbit. As to the method:
Phosphodiesterase-3 enzyme (PDE 3) was separated from platelets of a rabbit. About 60 ml of blood was collected from a puncture of the abdominal artery of a rabbit in heparinized syringes. Platelet-rich plasma was harvested by centrifugation for 5 min at 450×g and further centrifuged for 15 min at 1,200×g to precipitate the platelets. The platelets were resuspended in homogenizing buffer (50 mM Tris-HCl, 1 mM MgCl2, pH 7.4), homogenized at 4° C. and ultrasonicated (30 sec/ml). The homogenized solution was centrifuged (105,000×g) for 1 hr at 4° C. to obtain the supernatant in which PDE was dissolved. The supernatant was separated by DEAE-cellulose column chromatography (Whatman DE52 bead) by using eluent (50 mM Tris-HCl, 3.75mM2-mercaptoethanol, pH 6.0) with concentration gradient of 0-1 M sodium acetate to elute PDE isozymes. The PDE activity was measured on the each column fraction by the following process to separate PDE 3 fraction and the inhibition for PDE 3 of the compounds of formula 1 was measured by using the fraction.
To 1.5 ml tube containing 100 ul of reaction mixture (15 mM Tris-HCl, 5 mM MgCl2, 0.5 mg/ml BSA, pH 7.4) were added appropriate amount of PDE 3 fraction and PDE inhibitor and the solution was mixed well. After [^3H]-cAMP or [^3H]-cGMP (500 nM, 2 uCi/ml) was added, the mixture was reacted in incubator of 30° C. for about 1 hour and the reaction was quenched by putting the tube into boiling water for about 45 seconds to 2 min. The tube was chilled in ice bath for about 5 min. To this tube was added snake venom (1 mg/ml, 100 ul) or 5′-nucleotidase (0.1 unit/tube) and the mixture was reacted in incubator of 37° C. for 10 min and chilled in ice bath. 3 times volume of methanol to the resin was added to the anion exchange resin (Bio-Rad resin, AG1-X2, 200-400 mesh) which had been already washed with 0.5 N HCl, H2O, 0.5 N NaOH, H2O, 0.5 N HCl and H2O in order and adjusted to pH 5. Then 1 ml of the pretreated resin was added to the each tube with vortexing. The mixture was left at 4° C. for 15 min with occasional vortexing and centrifuged (10,000 rpm) for about 5 min to sediment the resin. The supernatant (700 ul) was transferred to a liquid scintillation vial, and mixed with 10 ml of scintillation cocktail. After stabilizing the mixture by leaving it overnight, the radioactivity of the tube was measured by β-counter.

Data set [4] in a line: Acute oral toxicity test in rats. Conditions: SD, rat, in vivo, 1 g/kg; rats, oral single dose; read-out: lethal dose (LD50) of oral administration.
A short description of data set [5]: Solubility in buffer solution in pH=2&5. The format is physicochemical. As to conditions: for solubility at 30 min: 20 °C, thermodynamic from solid. As to the method: According to that defined in the Korea Pharmacopoeia, citrate-HCl buffer (pH 2) and citrate-NaOH buffer (pH 5) solutions were added to the powdered compounds of formula 1, respectively. After subsequent severe shaking for 30 sec every 5 min in […] for 30 min, the level of compounds in the filtrate was measured by high performance liquid chromatography.

The nature of data set [6]: Metabolism in rat liver (9,000xg supernatant fraction with NADPH). The format is in vitro ADME. As to conditions: 10 ug/ml, 37° C., 1 hr, rat liver 9,000xg supernatant with NADPH generating solution. As to the method:
In order to evaluate the extent of metabolism of the compounds of formula 1, the metabolism in rat liver was studied as below similar to the reported method (C. L. Litterist, E. G. Mimnaugh, R. I. Reagan and T. G. Gram., Drug. Metabol. Disposit., 1975, 3, 259-265). In short, the disappearance of compounds after incubation in 9, 000×g supernatant fraction of rat liver homogenate in the presence of NADPH (reduced nicotinamide adenine dinucleotide phosphate) was evaluated.
First, Sprague-Dawley rat (Korea Experiment Animals, SPF) liver was isolated after perfusion through portal vein with 0.1 M phosphate buffer of pH 7.0 using tissue homogenizer at 4° C. After centrifugation at 9,000×g for 20 min, the supernatants were collected.
The compound stock solution was spiked (10 ug/ml) into each of the eppendorf tubes containing 1 ml of the mixed solution composing 1 volume of supernatants and 2 volumes of generating solution. The generating solution contains 1 mM NADP, 10 mM glucose-6-phosphate, 50 mM nicotinamide and 5 MM MgCl2 in 0.1 M phosphate buffer of pH 7.0. After vortex-mixing, each test tube was incubated in a water bath kept at 37° C. After 1 hr, was added acetonitrile to the reaction mixture and centrifuged. 100 ul of aliquot of the supernatant was sampled from each test tube for measuring the remnants by high performance liquid chromatography.

Setting [7] is: citrate-HCl buffer, pH 2, aqueous buffer, citrate-HCl buffer (pH 2), read-out: solubility pH 2.
Where [8] appears, read: citrate-NaOH buffer, pH 5, aqueous buffer, citrate-NaOH buffer (pH 5), read-out: solubility pH 5.

In the case of `CCCOc1ccc(S(=O)(=O)NCC2CCN(C)C2)cc1-c1nc2c(CCC)nn(C)c2c(=O)[nH]1` (centres unmarked) [Example 60, 5-[2-propyloxy-5-(1-methyl-3-pyrrolidinylmethylamidosulfonyl)phenyl]-1-methyl-3-propyl-1,6-dihydro-7H-pyrazolo(4,3-d)pyrimidin-7-one], in data set [1], the “PEI (penile erection index)” value is 300.0 ± 81.7. For the same molecule, the “genital grooming (number of genital groomings)” value (shortened to “genital grooming”) in data set [1] is listed as 2.8 ± 0.5. For the same molecule, the IC50 in data set [2] was 34.7 nM; in data set [3], more than 199000 nM. Besides, the LD50 in data set [4] was more than 1000 mg/kg. Besides, the “solubility pH 2” value in data set [5] (citrate-HCl buffer (pH 2)) is 4497 ug/ml. Also, the figures for the solubility at 30 min in data set [5] (setting [7]) and in data set [5] (setting [8]) were 3720 to 5360 µg/mL (≈ 7.4 to 10.7 mM) and 4920 to 14800 µg/mL (≈ 9.79 to 29.4 mM), respectively. Moreover, the “solubility pH 5” value in data set [5] (citrate-NaOH buffer (pH 5)) was 4923 ug/ml. Moreover, the “remnants (%)” value in data set [6] amounted to 78.2%.
With `CCOc1ccc(S(=O)(=O)NCC2CCN(C)C2)cc1-c1nc2c(CC(C)C)nn(C)c2c(=O)[nH]1` (centres unmarked) [Example 62, 5-[2-ethoxy-5-(1-methyl-3-pyrrolidinylmethylamidosulfonyl)phenyl]-1-methyl-3-isobutyl-1,6-dihydro-7H-pyrazolo(4,3-d)pyrimidin-7-one], in data set [1], the “PEI (penile erection index)” value was found to be 200.0 ± 100.0. The “genital grooming” value in data set [1] is 3.0 ± 1.0. Besides, the IC50 is 41.7 nM in data set [2] and 164000 nM in data set [3]. The LD50 in data set [4] is more than 1000 mg/kg. Also, the “solubility pH 2” value in data set [5] (citrate-HCl buffer (pH 2)) amounted to 4383 ug/ml. The solubility at 30 min in data set [5] (setting [7]) lay within 3720 to 5360 µg/mL (≈ 7.4 to 10.7 mM); in data set [5] (setting [8]), 4920 to 14800 µg/mL (≈ 9.79 to 29.4 mM). In addition, the “solubility pH 5” value in data set [5] (citrate-NaOH buffer (pH 5)) was determined as 3596 ug/ml. The “remnants (%)” value in data set [6] is on record as 94.5%.
Turning to `CCOc1ccc(S(=O)(=O)NCC2CCCN2C)cc1-c1nc2c(CC(C)C)nn(C)c2c(=O)[nH]1` (centres unmarked) [Example 58, 5-[2-ethoxy-5-(1-methyl-2-pyrrolidinylmethylamidosulfonyl)phenyl]-1-methyl-3-isobutyl-1,6-dihydro-7H-pyrazolo(4,3-d)pyrimidin-7-one], the “PEI (penile erection index)” value in data set [1] is given as 275.0 ± 170.8. Also, in data set [1], the “genital grooming” value was 3.0 ± 1.8. The concentration for half-maximal inhibition (IC50) was 16 nM in data set [2] and more than 199000 nM in data set [3]. For the same molecule, the LD50 in data set [4] was more than 1000 mg/kg. The “solubility pH 2” value in data set [5] (citrate-HCl buffer (pH 2)) came to 3722 ug/ml. Besides, the solubility at 30 min lay in the range of 3720 to 5360 µg/mL (≈ 7.4 to 10.7 mM) in data set [5] (setting [7]) and 4920 to 14800 µg/mL (≈ 9.79 to 29.4 mM) in data set [5] (setting [8]). Also, the “solubility pH 5” value in data set [5] (citrate-NaOH buffer (pH 5)) is on record as 9003 ug/ml. For the same molecule, in data set [6], the “remnants (%)” value was 93.5%.
For the molecule `CCOc1ccc(S(=O)(=O)NCc2ccccn2)cc1-c1nc2c(CC(C)C)nn(C)c2c(=O)[nH]1` [Example 51, 5-[2-ethoxy-5-(2-pyridylmethylamidosulfonyl)phenyl]-1-methyl-3-isobutyl-1,6-dihydro-7H-pyrazolo(4,3-d)pyrimidin-7-one], in data set [1], the “PEI (penile erection index)” value came out at 233.3 ± 152.8. In addition, the “genital grooming” value in data set [1] was determined as 3.0 ± 2.0. In addition, the IC50 in data set [2] is 1.5 nM; in data set [3], more than 201000 nM. Also, the LD50 in data set [4] is more than 1000 mg/kg. Further, the solubility at 30 min is 215 µg/mL (≈ 0.433 mM) in data set [5] (setting [7]) and 1 µg/mL (≈ 0.00201 mM) in data set [5] (setting [8]). In data set [6], the “remnants (%)” value is recorded as 70.4%.
Turning to `CCOc1ccc(S(=O)(=O)NCc2ccncc2)cc1-c1nc2c(CC(C)C)nn(C)c2c(=O)[nH]1` [Example 46, 5-[2-ethoxy-5-(4-pyridylmethylamidosulfonyl)phenyl]-1-methyl-3-isobutyl-1,6-dihydro-7H-pyrazolo (4,3-d)pyrimidin-7-one], in data set [1], the “PEI (penile erection index)” value worked out at 200.0 ± 173.2. Besides, the “genital grooming” value in data set [1] is 1.3 ± 0.6. Further, the half-maximal inhibitory concentration (IC50) in data set [2] was 1.2 nM; in data set [3], more than 201000 nM. The LD50 in data set [4] was more than 1000 mg/kg. In addition, the values for the solubility at 30 min in data set [5] (setting [7]) and in data set [5] (setting [8]) were 183 µg/mL (≈ 0.369 mM) and 0.4 µg/mL (≈ 0.000805 mM), respectively. The “remnants (%)” value in data set [6] is 75.9%.
`CCOc1ccc(S(=O)(=O)Nc2ccncc2)cc1-c1nc2c(CC(C)C)nn(C)c2c(=O)[nH]1` [Example 37, 5-[2-ethoxy-5-(4-pyridylamidosulfonyl)phenyl]-1-methyl-3-isobutyl-1,6-dihydro-7H-pyrazolo(4,3-d)pyrimidin-7-one]: in data set [1], the “PEI (penile erection index)” value was found to be 166.7 ± 57.7 and the “genital grooming” value came to 1.3 ± 0.6. It took 0.897 nM to reach half-maximal inhibition in data set [2] (IC50). In data set [4], the LD50 was more than 1000 mg/kg. Further, the solubility at 30 min in data set [5] (setting [7]) is 99 µg/mL (≈ 0.205 mM). The solubility at 30 min in data set [5] (setting [8]) is 7 µg/mL (≈ 0.0145 mM). In addition, the “remnants (%)” value in data set [6] is 94.8%.
